Laboratory results: patent US5064954A, “Process for producing halomethylcarbapenems” (Shionogi & Co., Ltd., priority 1990, dated 1991)
In brackets after ≈: the same amount, converted by molar mass. Where a name gives a salt, the structure may show the parent alone.

How the values were obtained:
Assay type in all cases: cell-based
S. aureus Smith = assay: MIC against S. aureus Smith; conditions: Staphylococcus aureus
Text: |MIC: μg/ml (inoculum size = 10^5 /ml) |S = S. aureus Smith

Ps. aeruginosa SR-24 = assay: MIC against Ps. aeruginosa SR-24; conditions: Pseudomonas aeruginosa, SR24
Text: |MIC: μg/ml (inoculum size = 10^5 /ml) |P = Ps. aeruginosa SR-24

E. coli EC-14 = assay: MIC against E. coli EC-14; conditions: Escherichia coli, EC14
Text: |MIC: μg/ml (inoculum size = 10^5 /ml) |E = E. coli EC-14

[1] = Table I, S = S. aureus Smith, inoculum size = 10^5 /ml
[2] = Table I, P = Ps. aeruginosa SR-24, inoculum size = 10^5 /ml
[3] = Table I, E = E. coli EC-14, inoculum size = 10^5 /ml
[4] = Table II, S (key, unit and inoculum given only in Table I)
[5] = Table II, P (key, unit and inoculum given only in Table I)
[6] = Table II, E (key, unit and inoculum given only in Table I)
[7] = Table III, S (key, unit and inoculum given only in Table I)
[8] = Table III, P (key, unit and inoculum given only in Table I)
[9] = Table III, E (key, unit and inoculum given only in Table I)

MIC (S. aureus Smith; [1])	MIC (Ps. aeruginosa SR-24; [2])	MIC (E. coli EC-14; [3])	MIC (S. aureus Smith; [4])	MIC (Ps. aeruginosa SR-24; [5])	MIC (E. coli EC-14; [6])	Structure (SMILES)	also measured
0.0125 µg/mL (≈ 0.0394 µM)	6.25 µg/mL (≈ 19.7 µM)	0.2 µg/mL (≈ 0.63 µM)	–	–	–	CC(O)[C@H]1C(=O)N2C(C(=O)[O-])=C(C[n+]3ccc(N)cc3)[C@H](C)[C@H]12 (stereo partly drawn) [Table I No. 20]	–
0.0125 µg/mL (≈ 0.0376 µM)	3.13 µg/mL (≈ 9.42 µM)	0.2 µg/mL (≈ 0.602 µM)	–	–	–	CC(O)[C@H]1C(=O)N2C(C(=O)[O-])=C(C[n+]3ccc(N)c(N)c3)[C@H](C)[C@H]12 (stereo partly drawn) [Table I No. 21]	–
0.0125 µg/mL (≈ 0.0362 µM)	3.13 µg/mL (≈ 9.06 µM)	0.1 µg/mL (≈ 0.29 µM)	–	–	–	CC(O)[C@H]1C(=O)N2C(C(=O)[O-])=C(C[n+]3ccc(N(C)C)cc3)[C@H](C)[C@H]12 (stereo partly drawn) [Table I No. 22]	–
0.05 µg/mL (≈ 0.157 µM)	12.5 µg/mL (≈ 39.3 µM)	0.2 µg/mL (≈ 0.628 µM)	–	–	–	CC(O)[C@H]1C(=O)N2C(C(=O)[O-])=C(C[n+]3cccc(O)c3)[C@H](C)[C@H]12 (stereo partly drawn) [Table I No. 23]	–
0.0125 µg/mL (≈ 0.0359 µM)	3.13 µg/mL (≈ 8.98 µM)	0.39 µg/mL (≈ 1.12 µM)	–	–	–	CSc1ccc[n+](CC2=C(C(=O)[O-])N3C(=O)[C@H](C(C)O)[C@H]3[C@H]2C)c1 (stereo partly drawn) [Table I No. 26]	–
0.025 µg/mL (≈ 0.0718 µM)	3.13 µg/mL (≈ 8.98 µM)	0.2 µg/mL (≈ 0.574 µM)	–	–	–	CSc1cc[n+](CC2=C(C(=O)[O-])N3C(=O)[C@H](C(C)O)[C@H]3[C@H]2C)cc1 (stereo partly drawn) [Table I No. 27]	–
–	–	–	0.1 µg/mL (≈ 0.285 µM)	12.5 µg/mL (≈ 35.6 µM)	0.2 µg/mL (≈ 0.569 µM)	CC(O)[C@H]1C(=O)N2C(C(=O)[O-])=C(C[N+]3(CC(N)=O)CCCC3)[C@H](C)[C@H]12 (stereo partly drawn) [Table II No. 2]	–
–	–	–	0.39 µg/mL (≈ 1.11 µM)	50 µg/mL (≈ 142 µM)	0.39 µg/mL (≈ 1.11 µM)	CC(O)[C@H]1C(=O)N2C(C(=O)[O-])=C(C[N+]3(CC(=O)O)CCCC3)[C@H](C)[C@H]12 (stereo partly drawn) [Table II No. 3]	–
–	–	–	0.025 µg/mL (≈ 0.0775 µM)	3.13 µg/mL (≈ 9.71 µM)	0.1 µg/mL (≈ 0.31 µM)	CC(O)[C@H]1C(=O)N2C(C(=O)[O-])=C(C[N+]3(C)CCCCC3)[C@H](C)[C@H]12 (stereo partly drawn) [Table II No. 4, 1β-methyl-2-(1-methylpiperidinio-1-yl)methyl-6α-(1-hydroxyethyl)-1-carba-2-penem-4-carboxylate]	–

More lines, now with the values behind:

Structure (SMILES)	MIC (S. aureus Smith; [1])	MIC (Ps. aeruginosa SR-24; [2])	MIC (E. coli EC-14; [3])	MIC (S. aureus Smith; [4])	MIC (Ps. aeruginosa SR-24; [5])	MIC (E. coli EC-14; [6])	also measured
COc1ccc[n+](CC2=C(C(=O)[O-])N3C(=O)[C@H](C(C)O)[C@H]3[C@H]2C)c1 (stereo partly drawn) [Table I No. 24]	0.025 µg/mL (≈ 0.0752 µM)	3.13 µg/mL (≈ 9.42 µM)	0.39 µg/mL (≈ 1.17 µM)	–	–	–	–
COc1cc[n+](CC2=C(C(=O)[O-])N3C(=O)[C@H](C(C)O)[C@H]3[C@H]2C)cc1 (stereo partly drawn) [Table I No. 25]	0.025 µg/mL (≈ 0.0752 µM)	3.13 µg/mL (≈ 9.42 µM)	0.39 µg/mL (≈ 1.17 µM)	–	–	–	–
CC(O)[C@H]1C(=O)N2C(C(=O)[O-])=C(C[n+]3cccc(F)c3)[C@H](C)[C@H]12 (stereo partly drawn) [Table I No. 28]	0.025 µg/mL (≈ 0.078 µM)	3.13 µg/mL (≈ 9.77 µM)	0.39 µg/mL (≈ 1.22 µM)	–	–	–	–
CC(O)[C@H]1C(=O)N2C(C(=O)[O-])=C(C[N+]3(C)CCCC3)[C@H](C)[C@H]12 (stereo partly drawn) [Table II No. 1]	–	–	–	0.025 µg/mL (≈ 0.0811 µM)	3.13 µg/mL (≈ 10.1 µM)	0.1 µg/mL (≈ 0.324 µM)	–
CC(O)[C@H]1C(=O)N2C(C(=O)[O-])=C(C[N+]34CCC(CC3)CC4)[C@H](C)[C@H]12 (stereo partly drawn) [Table II No. 5, 1β-methyl-2-(quinuclidinio-1-yl)-methyl-6α-(1-hydroxyethyl)-1-carba-2-penem-4-carboxylate]	–	–	–	0.025 µg/mL (≈ 0.0748 µM)	6.25 µg/mL (≈ 18.7 µM)	0.2 µg/mL (≈ 0.598 µM)	–
CC(O)[C@H]1C(=O)N2C(C(=O)[O-])=C(C[N+]34CCN(CC3)CC4)[C@H](C)[C@H]12 (stereo partly drawn) [Table II No. 6]	–	–	–	0.1 µg/mL (≈ 0.298 µM)	6.25 µg/mL (≈ 18.6 µM)	0.39 µg/mL (≈ 1.16 µM)	–
CC(O)[C@H]1C(=O)N2C(C(=O)[O-])=C(CN[n+]3ccccc3)[C@H](C)[C@H]12 (stereo partly drawn) [Table III No. 1]	–	–	–	–	–	–	MIC (S. aureus Smith; [7]): 0.025 µg/mL (≈ 0.0788 µM); MIC (Ps. aeruginosa SR-24; [8]): 12.5 µg/mL (≈ 39.4 µM); MIC (E. coli EC-14; [9]): 0.39 µg/mL (≈ 1.23 µM)
CC(O)[C@H]1C(=O)N2C(C(=O)O)=C(CN3CCCC3)[C@H](C)[C@H]12 (stereo partly drawn) [Table III No. 2]	–	–	–	–	–	–	MIC (S. aureus Smith; [7]): 0.0125 µg/mL (≈ 0.0425 µM); MIC (Ps. aeruginosa SR-24; [8]): 12.5 µg/mL (≈ 42.5 µM); MIC (E. coli EC-14; [9]): 0.39 µg/mL (≈ 1.32 µM)
CC(O)[C@H]1C(=O)N2C(C(=O)O)=C(CN3CCC(N)C3)[C@H](C)[C@H]12 (stereo partly drawn) [Table III No. 3]	–	–	–	–	–	–	MIC (S. aureus Smith; [7]): 0.05 µg/mL (≈ 0.162 µM); MIC (Ps. aeruginosa SR-24; [8]): 3.13 µg/mL (≈ 10.1 µM); MIC (E. coli EC-14; [9]): 0.78 µg/mL (≈ 2.52 µM)
CC(O)[C@H]1C(=O)N2C(C(=O)O)=C(CN3CCCCC3)[C@H](C)[C@H]12 (stereo partly drawn) [Table III No. 4, 1β-methyl-2-(piperidin-1-yl)methyl-6α-(1-hydroxyethyl)-1-carba-2-penem-4-carboxylic acid sodium salt]	–	–	–	–	–	–	MIC (S. aureus Smith; [7]): 0.0125 µg/mL; MIC (Ps. aeruginosa SR-24; [8]): 50 µg/mL; MIC (E. coli EC-14; [9]): 1.56 µg/mL
